According to ChEMBL document CHEMBL3885881, “DrugMatrix”:

Organism: Rattus norvegicus
Test: DrugMatrix - Regimen: Daily Repeat
Format: toxicity, organism-based, Sprague-Dawley
Set-up: regimen Daily Repeat, gender Male, age 6-8 weeks
Conditions: in vivo, po, route oral GAVAGE, […]; for ABSOLUTE BASOPHIL / ABSOLUTE EOSINOPHIL / ABSOLUTE LYMPHOCYTE / ABSOLUTE MONOCYTE / ABSOLUTE SEGMENTED NEUTROPHIL / BASOPHIL / EOSINOPHIL / ERYTHROCYTE COUNT / HEMATOCRIT / HEMOGLOBIN / LEUKOCYTE COUNT / LYMPHOCYTE / MEAN CORPUSCULAR HEMOGLOBIN / MEAN CORPUSCULAR HEMOGLOBIN CONCENTRATION / MEAN CORPUSCULAR VOLUME / MONOCYTE / NEUTROPHIL / NUCLEATED RED BLOOD CELLS / PLATELET COUNT: tissue Blood; for ALANINE AMINOTRANSFERASE / ALBUMIN / ALKALINE PHOSPHATASE / ASPARTATE AMINOTRANSFERASE / BLOOD UREA NITROGEN / CARBON DIOXIDE / CHLORIDE / CHOLESTEROL / CREATINE PHOSPHOKINASE / CREATININE / GLUCOSE / LACTATE DEHYDROGENASE / LIPASE / PHOSPHORUS / POTASSIUM / SODIUM / TOTAL BILIRUBIN / TOTAL PROTEIN / URIC ACID: tissue Plasma
[1] = 250 mg/kg, 72 h, dose level Low, time 3 day
[2] = 250 mg/kg, 120 h, dose level Low, time 5 day
[3] = 930 mg/kg, 72 h, dose level High, time 3 day
[4] = 930 mg/kg, 120 h, dose level High, time 5 day

## CC12CCC(CC1)C(C)(C)O2 [EUCALYPTOL]
[1]
  ABSOLUTE BASOPHIL: 0 CELLS/uL
  ABSOLUTE EOSINOPHIL: 0 CELLS/uL
  ABSOLUTE LYMPHOCYTE: 12865.33 CELLS/uL
  ABSOLUTE MONOCYTE: 104 CELLS/uL
  ABSOLUTE SEGMENTED NEUTROPHIL: 1797.33 CELLS/uL
  BASOPHIL: 0%
  EOSINOPHIL: 0%
  ERYTHROCYTE COUNT: 5.22 x10E6/uL
  HEMATOCRIT: 32.73%
  HEMOGLOBIN: 12.97 G/DL
  LEUKOCYTE COUNT: 14.77 x10E3/uL
  LYMPHOCYTE: 87.33%
  MEAN CORPUSCULAR HEMOGLOBIN: 24.83 pg
  MEAN CORPUSCULAR HEMOGLOBIN CONCENTRATION: 39.63 G/DL
  MEAN CORPUSCULAR VOLUME: 62.77 fL
  MONOCYTE: 0.67%
  NEUTROPHIL: 12%
  NUCLEATED RED BLOOD CELLS: 0 /100WBC
  PLATELET COUNT: 1143.67 x10E3/uL
  ALANINE AMINOTRANSFERASE: 68.67 u/L
  ALBUMIN: 4.03 G/DL
  ALKALINE PHOSPHATASE: 413.33 u/L
  ASPARTATE AMINOTRANSFERASE: 95.33 u/L
  BLOOD UREA NITROGEN: 12.33 mg/dL
  CARBON DIOXIDE: 24 mmol/L
  CHLORIDE: 103.67 MEQ/L
  CHOLESTEROL: 84.67 mg/dL
  CREATINE PHOSPHOKINASE: 439.67 u/L
  CREATININE: 0.17 mg/dL
  GLUCOSE: 160.33 mg/dL
  LACTATE DEHYDROGENASE: 154.67 u/L
  LIPASE: 10.33 u/L
  PHOSPHORUS: 12.5 mg/dL
  POTASSIUM: 6.64 MEQ/L
  SODIUM: 145.33 MEQ/L
  TOTAL BILIRUBIN: 0.2 mg/dL
  TOTAL PROTEIN: 5.53 G/DL
  URIC ACID: 1.43 mg/dL
[2]
  ABSOLUTE BASOPHIL: 0 CELLS/uL
  ABSOLUTE EOSINOPHIL: 0 CELLS/uL
  ABSOLUTE LYMPHOCYTE: 15020.67 CELLS/uL
  ABSOLUTE MONOCYTE: 301.67 CELLS/uL
  ABSOLUTE SEGMENTED NEUTROPHIL: 1277.67 CELLS/uL
  BASOPHIL: 0%
  EOSINOPHIL: 0%
  ERYTHROCYTE COUNT: 5.46 x10E6/uL
  HEMATOCRIT: 34.57%
  HEMOGLOBIN: 14.17 G/DL
  LEUKOCYTE COUNT: 16.6 x10E3/uL
  LYMPHOCYTE: 90.33%
  MEAN CORPUSCULAR HEMOGLOBIN: 25.97 pg
  MEAN CORPUSCULAR HEMOGLOBIN CONCENTRATION: 40.97 G/DL
  MEAN CORPUSCULAR VOLUME: 63.33 fL
  MONOCYTE: 1.67%
  NEUTROPHIL: 8%
  NUCLEATED RED BLOOD CELLS: 0.67 /100WBC
  PLATELET COUNT: 1304.67 x10E3/uL
  ALANINE AMINOTRANSFERASE: 61 u/L
  ALBUMIN: 4.2 G/DL
  ALKALINE PHOSPHATASE: 377.33 u/L
  ASPARTATE AMINOTRANSFERASE: 78.33 u/L
  BLOOD UREA NITROGEN: 16 mg/dL
  CARBON DIOXIDE: 24.33 mmol/L
  CHLORIDE: 103 MEQ/L
  CHOLESTEROL: 71 mg/dL
  CREATINE PHOSPHOKINASE: 231.33 u/L
  CREATININE: 0.17 mg/dL
  GLUCOSE: 153.67 mg/dL
  LACTATE DEHYDROGENASE: 170.67 u/L
  LIPASE: 10 u/L
  PHOSPHORUS: 12.6 mg/dL
  POTASSIUM: 6.77 MEQ/L
  SODIUM: 146.3 MEQ/L
  TOTAL BILIRUBIN: 0.13 mg/dL
  TOTAL PROTEIN: 5.97 G/DL
  URIC ACID: 1.53 mg/dL
[3]
  ABSOLUTE BASOPHIL: 0 CELLS/uL
  ABSOLUTE EOSINOPHIL: 0 CELLS/uL
  ABSOLUTE LYMPHOCYTE: 15782.67 CELLS/uL
  ABSOLUTE MONOCYTE: 121.67 CELLS/uL
  ABSOLUTE SEGMENTED NEUTROPHIL: 2129 CELLS/uL
  BASOPHIL: 0%
  EOSINOPHIL: 0%
  ERYTHROCYTE COUNT: 5.63 x10E6/uL
  HEMATOCRIT: 35.83%
  HEMOGLOBIN: 14.2 G/DL
  LEUKOCYTE COUNT: 18.03 x10E3/uL
  LYMPHOCYTE: 87.67%
  MEAN CORPUSCULAR HEMOGLOBIN: 25.3 pg
  MEAN CORPUSCULAR HEMOGLOBIN CONCENTRATION: 39.67 G/DL
  MEAN CORPUSCULAR VOLUME: 63.73 fL
  MONOCYTE: 0.67%
  NEUTROPHIL: 11.67%
  NUCLEATED RED BLOOD CELLS: 0 /100WBC
  PLATELET COUNT: 1268 x10E3/uL
  ALANINE AMINOTRANSFERASE: 85.33 u/L
  ALBUMIN: 4.33 G/DL
  ALKALINE PHOSPHATASE: 424.33 u/L
  ASPARTATE AMINOTRANSFERASE: 90.67 u/L
  BLOOD UREA NITROGEN: 16.67 mg/dL
  CARBON DIOXIDE: 23.33 mmol/L
  CHLORIDE: 103 MEQ/L
  CHOLESTEROL: 84.33 mg/dL
  CREATINE PHOSPHOKINASE: 211.67 u/L
  CREATININE: 0.24 mg/dL
  GLUCOSE: 153.67 mg/dL
  LACTATE DEHYDROGENASE: 86.67 u/L
  LIPASE: 11.67 u/L
  PHOSPHORUS: 12.2 mg/dL
  POTASSIUM: 6.76 MEQ/L
  SODIUM: 146.43 MEQ/L
  TOTAL BILIRUBIN: 0.13 mg/dL
  TOTAL PROTEIN: 6.03 G/DL
  URIC ACID: 1.67 mg/dL
[4]
  ABSOLUTE BASOPHIL: 0 CELLS/uL
  ABSOLUTE EOSINOPHIL: 0 CELLS/uL
  ABSOLUTE LYMPHOCYTE: 18083.67 CELLS/uL
  ABSOLUTE MONOCYTE: 256.67 CELLS/uL
  ABSOLUTE SEGMENTED NEUTROPHIL: 1226.33 CELLS/uL
  BASOPHIL: 0%
  EOSINOPHIL: 0%
  ERYTHROCYTE COUNT: 5.66 x10E6/uL
  HEMATOCRIT: 35.63%
  HEMOGLOBIN: 14.2 G/DL
  LEUKOCYTE COUNT: 19.57 x10E3/uL
  LYMPHOCYTE: 92.33%
  MEAN CORPUSCULAR HEMOGLOBIN: 25.1 pg
  MEAN CORPUSCULAR HEMOGLOBIN CONCENTRATION: 39.87 G/DL
  MEAN CORPUSCULAR VOLUME: 62.97 fL
  MONOCYTE: 1.33%
  NEUTROPHIL: 6.33%
  NUCLEATED RED BLOOD CELLS: 0 /100WBC
  PLATELET COUNT: 1326.67 x10E3/uL
  ALANINE AMINOTRANSFERASE: 58 u/L
  ALBUMIN: 4.17 G/DL
  ALKALINE PHOSPHATASE: 302.33 u/L
  ASPARTATE AMINOTRANSFERASE: 76.33 u/L
  BLOOD UREA NITROGEN: 14 mg/dL
  CARBON DIOXIDE: 26.33 mmol/L
  CHLORIDE: 101.67 MEQ/L
  CHOLESTEROL: 73 mg/dL
  CREATINE PHOSPHOKINASE: 275 u/L
  CREATININE: 0.22 mg/dL
  GLUCOSE: 158 mg/dL
  LACTATE DEHYDROGENASE: 114.33 u/L
  LIPASE: 11 u/L
  PHOSPHORUS: 11.8 mg/dL
  POTASSIUM: 6.84 MEQ/L
  SODIUM: 145.5 MEQ/L
  TOTAL BILIRUBIN: 0.23 mg/dL
  TOTAL PROTEIN: 5.97 G/DL
  URIC ACID: 1.8 mg/dL
